Source: patent publication US12070455B2, “Thienopyrrole compounds” (Gilead Sciences, Inc., priority 2021, dated 2024)

Assays:
TLR8 = target: T1, TLR8 (Homo sapiens, UniProt Q9NR97); assay: TLR8 human peripheral blood mononuclear cell (PBMC) cell-based assay; conditions: human PBMCs; 1 h with antagonist, then TLR8 agonist Compound A 800 nM for 6 h; cytokines (TNFa and IL12p40) in supernatant; read-out: TLR-8 EC50
T1 construct: Human peripheral blood mononuclear cells (PBMCs) consist of lymphocytes, monocytes and dendritic cells that express TLR7, TLR8 and TLR9; endogenous in cells; host or cells: cryopreserved human PBMCs from healthy donors
T1 sequence (Q9NR97 27-1041): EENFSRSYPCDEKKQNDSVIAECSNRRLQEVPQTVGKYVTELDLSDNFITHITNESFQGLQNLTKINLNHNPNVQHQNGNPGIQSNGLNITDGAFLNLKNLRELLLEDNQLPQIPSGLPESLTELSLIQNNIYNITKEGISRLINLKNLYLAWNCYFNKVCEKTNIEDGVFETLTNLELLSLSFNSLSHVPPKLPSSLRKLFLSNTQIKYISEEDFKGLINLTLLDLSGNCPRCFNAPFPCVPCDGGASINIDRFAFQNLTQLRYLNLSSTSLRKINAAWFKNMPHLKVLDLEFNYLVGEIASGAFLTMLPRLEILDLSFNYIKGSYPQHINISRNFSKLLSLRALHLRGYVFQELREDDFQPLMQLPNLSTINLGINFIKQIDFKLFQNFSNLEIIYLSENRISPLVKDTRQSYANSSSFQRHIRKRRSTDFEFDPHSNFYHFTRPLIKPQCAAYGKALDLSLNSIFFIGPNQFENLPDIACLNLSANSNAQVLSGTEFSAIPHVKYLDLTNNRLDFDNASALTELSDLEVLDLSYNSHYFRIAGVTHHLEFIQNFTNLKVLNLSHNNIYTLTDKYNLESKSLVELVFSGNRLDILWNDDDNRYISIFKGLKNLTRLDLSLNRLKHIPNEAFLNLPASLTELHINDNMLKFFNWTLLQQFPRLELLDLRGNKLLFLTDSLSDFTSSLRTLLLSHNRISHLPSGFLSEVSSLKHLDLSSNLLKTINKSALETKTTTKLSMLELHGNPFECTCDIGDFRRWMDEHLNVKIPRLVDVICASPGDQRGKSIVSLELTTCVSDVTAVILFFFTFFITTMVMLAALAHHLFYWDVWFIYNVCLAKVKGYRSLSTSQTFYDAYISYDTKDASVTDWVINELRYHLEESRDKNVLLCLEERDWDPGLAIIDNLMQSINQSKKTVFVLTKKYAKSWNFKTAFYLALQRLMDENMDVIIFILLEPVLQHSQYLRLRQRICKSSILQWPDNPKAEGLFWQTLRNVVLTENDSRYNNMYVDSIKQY
Procedure: TLR8 Human Peripheral Blood Mononuclear Cell (PBMC) Cell-Based Assay
Cryopreserved human PBMCs from healthy donors were thawed and resuspended in RPMI-1640 media with L-glutamine (Corning) supplemented with 10% Fetal Bovine Serum (Hyclone) and 1× Penicillin-Streptomycin (Corning). After counting, the cell density was adjusted to 2 million cells/ml and incubated for 1 hour at 37° C., 5% CO2 for recovery. Following the recovery, the cells were plated by adding 50 μl per well (100,000 cells) to 384-well cell culture plates (Greiner) containing 250 nl of test antagonists in 100% DMSO per well, in a 10 points dose response in quadruplicates. PBMCs were incubated in the presence of antagonists for one hour at 37° C., 5% CO2 before being stimulated with TLR8 agonist. Compound A (Gilead Sciences, U.S. Pat. No. 10,285,990) was used as the TLR8 agonist at a final concentration of 800 nM. PBMCs were incubated in the presence of antagonist and the TLR8 agonist for an additional 6 hours at 37° C., 5% CO2. At the end of the incubation, the cell culture plates were centrifuged at 500 g for 5 min, and the cell culture supernatant was collected. The level of cytokines (TNFa and IL12p40) in the supernatant was measured by electrochemiluminescence immunoassays (Mesoscale Discovery) following manufacturer's recommended protocols. The level of cytokine measured was plotted against the antagonist concentration and fitted to a sigmoidal function to determine the EC50, which are shown below in Table 6.

TLR7 = target: T2, TLR7 (Homo sapiens, UniProt Q9NYK1); assay: TLR7 human peripheral blood mononuclear cell (PBMC) cell-based assay; conditions: human PBMCs; 1 h with test antagonist, then TLR7 agonist GS-986 400 nM for 6 h; cytokines (IL-6 and IFNα) in supernatant; read-out: TLR-7 EC50
T2 construct: Human peripheral blood mononuclear cells (PBMCs) consist of lymphocytes, monocytes and dendritic cells that express TLR7, TLR8 and TLR9; endogenous in cells; host or cells: cryopreserved human PBMCs from healthy donors
T2 sequence (Q9NYK1 27-1049): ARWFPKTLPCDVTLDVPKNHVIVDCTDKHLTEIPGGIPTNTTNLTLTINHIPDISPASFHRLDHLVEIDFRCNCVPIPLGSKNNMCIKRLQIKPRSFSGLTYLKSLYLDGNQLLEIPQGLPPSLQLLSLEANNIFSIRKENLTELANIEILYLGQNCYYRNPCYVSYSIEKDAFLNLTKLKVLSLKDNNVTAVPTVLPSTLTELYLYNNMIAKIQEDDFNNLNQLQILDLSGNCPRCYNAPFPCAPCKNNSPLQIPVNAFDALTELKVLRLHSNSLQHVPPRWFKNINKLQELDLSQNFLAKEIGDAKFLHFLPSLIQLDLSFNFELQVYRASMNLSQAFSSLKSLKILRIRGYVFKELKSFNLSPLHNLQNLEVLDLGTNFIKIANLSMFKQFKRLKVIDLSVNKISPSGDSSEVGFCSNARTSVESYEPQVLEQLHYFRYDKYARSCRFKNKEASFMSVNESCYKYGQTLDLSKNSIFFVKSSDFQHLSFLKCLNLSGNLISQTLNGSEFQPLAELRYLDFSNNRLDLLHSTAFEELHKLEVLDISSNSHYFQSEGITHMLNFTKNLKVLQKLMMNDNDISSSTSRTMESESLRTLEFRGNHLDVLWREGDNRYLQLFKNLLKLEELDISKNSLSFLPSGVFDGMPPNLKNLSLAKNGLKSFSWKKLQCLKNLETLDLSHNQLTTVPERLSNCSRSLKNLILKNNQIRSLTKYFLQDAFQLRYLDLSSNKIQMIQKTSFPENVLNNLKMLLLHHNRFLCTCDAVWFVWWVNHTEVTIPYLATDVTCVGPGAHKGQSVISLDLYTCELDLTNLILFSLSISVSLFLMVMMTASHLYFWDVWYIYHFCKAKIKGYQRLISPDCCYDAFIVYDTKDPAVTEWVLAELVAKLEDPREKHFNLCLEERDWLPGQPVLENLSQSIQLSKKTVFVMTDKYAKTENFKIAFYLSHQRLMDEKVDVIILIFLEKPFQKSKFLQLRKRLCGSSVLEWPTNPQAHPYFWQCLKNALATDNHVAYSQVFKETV
Text: TLR7/9 Human Peripheral Blood Mononuclear Cell (PBMC) Cell-Based Assay
Human peripheral blood mononuclear cells (PBMCs) consist of lymphocytes, monocytes and dendritic cells that express TLR7, TLR8 and TLR9. These cells respond to TLR7, TLR8 and TLR9 ligand stimulation and produce cytokines and chemokines in vitro and in vivo. Human PBMCs are therefore suitable to be used in a cell-based assay to assess the in vitro potency of a TLR 7, 8, and/or 9 antagonist.
Cryopreserved human PBMCs from healthy donors were thawed and resuspended in RPMI-1640 media with L-glutamine (Corning) supplemented with 10% Fetal Bovine Serum (Hyclone) and 1× Penicillin-Streptomycin (Corning). After counting, the cell density was adjusted to 2 million cells/ml and incubated for 1 hour at 37° C., 5% CO2 for recovery. Following the recovery, the cells were plated by adding 50 μl per well (100,000 cells) to 384-well cell culture plates (Greiner) containing 250 nl of test antagonists in 100% DMSO per well, in a 10 points dose response in quadruplicates. PBMCs were incubated in the presence of test antagonists for one hour at 37° C., 5% CO2 before being stimulated with a TLR7 or TLR9 agonist. GS-986 (Gilead Sciences) was used as the TLR7 agonist at a final concentration of 400 nM. ODN-2216 (InvivoGen) was used as the TLR9 agonist at a final concentration of 3 μM. PBMCs were incubated in the presence of the test antagonist and the TLR7 (or TLR9) agonist for an additional 6 hours at 37° C., 5% CO2. At the end of the incubation, the cell culture plates were centrifuged at 500 g for 5 min, and the cell culture supernatant was collected. The level of cytokines (IL-6 and IFNα) in the supernatant was measured by electrochemiluminescence immunoassays (Mesoscale Discovery) following manufacturer's recommended protocols. The level of cytokine measured was plotted against the test antagonist concentration and fitted to a sigmoidal function to determine the EC50, which are shown below in Table 6.

Compound	EC50 (TLR8)	EC50 (TLR7)
Cc1c(C2CCNCC2)sc2[nH]c(-c3cn4ncnc4c4c3CCC4)c(C(C)C)c12 [Example 1, 5-(8,9-dihydro-7H-cyclopenta[c][1,2,4]triazolo[1,5-a]pyridin-6-yl)-4-isopropyl-3-methyl-2-(piperidin-4-yl)-6H-thieno[2,3-b]pyrrole]	1.89 nM	0.11 nM
Cc1c(C2CC3CCC(C2)N3)sc2[nH]c(-c3cn4ncnc4c4c3CCC4)c(C(C)C)c12 (stereo not shown) [Example 2]	3.94 nM	0.95 nM
Cc1c(C2C[C@@H]3C[C@H]2CN3)sc2[nH]c(-c3cn4ncnc4c4c3CCC4)c(C(C)C)c12 (stereo partly shown) [Example 3]	0.31 nM	0.77 nM
Cc1c(C23CCNCC2C3)sc2[nH]c(-c3cn4ncnc4c4c3CCC4)c(C(C)C)c12 (stereo not shown) [Example 5, 2-(3-azabicyclo[4.1.0]heptan-6-yl)-5-(8,9-dihydro-7H-cyclopenta[c][1,2,4]triazolo[1,5-a]pyridin-6-yl)-4-isopropyl-3-methyl-6H-thieno[2,3-b]pyrrole]	1.76 nM	0.23 nM
Cc1c(C2CCN(CC(N)=O)CC2)sc2[nH]c(-c3cn4ncnc4c4c3CCC4)c(C(C)C)c12 [Example 6, 2-(4-(5-(8,9-dihydro-7H-cyclopenta[c][1,2,4]triazolo[1,5-a]pyridin-6-yl)-4-isopropyl-3-methyl-6H-thieno[2,3-b]pyrrol-2-yl)piperidin-1-yl)acetamide]	3.06 nM	0.35 nM
Cc1c(C2CC3CCC(C2)N3CC(N)=O)sc2[nH]c(-c3cn4ncnc4c4c3CCC4)c(C(C)C)c12 (stereo not shown) [Example 7]	3.91 nM	0.78 nM
Cc1c(C2C[C@@H]3C[C@H]2CN3CC(N)=O)sc2[nH]c(-c3cn4ncnc4c4c3CCC4)c(C(C)C)c12 (stereo partly shown) [Example 8]	0.14 nM	0.69 nM
Cc1c(C2CC3(CCN(CC(N)=O)C3)C2)sc2[nH]c(-c3cn4ncnc4c4c3CCC4)c(C(C)C)c12 (stereo not shown) [Example 9]	0.32 nM	1.17 nM
Cc1c(C23CCN(CC(N)=O)CC2C3)sc2[nH]c(-c3cn4ncnc4c4c3CCC4)c(C(C)C)c12 (stereo not shown) [Example 10]	15.3 nM	0.26 nM
Cc1c(C2CCN(S(=O)(=O)N3CCNCC3)CC2)sc2[nH]c(-c3cn4ncnc4c4c3CCC4)c(C(C)C)c12 [Example 11, 5-(8,9-dihydro-7H-cyclopenta[c][1,2,4]triazolo[1,5-a]pyridin-6-yl)-4-isopropyl-3-methyl-2-(1-(piperazin-1-ylsulfonyl)piperidin-4-yl)-6H-thieno[2,3-b]pyrrole]	4.7 nM	0.32 nM
Cc1c(C2CCN(CC3(C)COC3)CC2)sc2[nH]c(-c3cn4ncnc4c4c3CCC4)c(C(C)C)c12 [Example 12, 5-(8,9-dihydro-7H-cyclopenta[c][1,2,4]triazolo[1,5-a]pyridin-6-yl)-4-isopropyl-3-methyl-2-(1-((3-methyloxetan-3-yl)methyl)piperidin-4-yl)-6H-thieno[2,3-b]pyrrole]	4.74 nM	6.08 nM
Cc1c(C2CCN(Cc3ccn(C)n3)CC2)sc2[nH]c(-c3cn4ncnc4c4c3CCC4)c(C(C)C)c12 [Example 13]	5.84 nM	1.44 nM
Cc1c(C2CCN(C(=O)[C@H]3COCCN3)CC2)sc2[nH]c(-c3cn4ncnc4c4c3CCC4)c(C(C)C)c12 [Example 14, (R)-(4-(5-(8,9-dihydro-7H-cyclopenta[c][1,2,4]triazolo[1,5-a]pyridin-6-yl)-4-isopropyl-3-methyl-6H-thieno[2,3-b]pyrrol-2-yl)piperidin-1-yl)(morpholin-3-yl)methanone]	4.87 nM	0.58 nM
Cc1c(C2CCN(C(=O)[C@@H]3COCCN3)CC2)sc2[nH]c(-c3cn4ncnc4c4c3CCC4)c(C(C)C)c12 [Example 15]	5.26 nM	0.29 nM
Cc1c(C2CCN(C(=O)[C@H]3C[C@@H](F)CN3)CC2)sc2[nH]c(-c3cn4ncnc4c4c3CCC4)c(C(C)C)c12 [Example 16]	12.5 nM	1.46 nM
Cc1c(C2CCN(C(=O)[C@H]3C[C@H](F)CN3)CC2)sc2[nH]c(-c3cn4ncnc4c4c3CCC4)c(C(C)C)c12 [Example 17]	15.2 nM	0.68 nM
CO[C@H]1CN[C@@H](C(=O)N2CCC(c3sc4[nH]c(-c5cn6ncnc6c6c5CCC6)c(C(C)C)c4c3C)CC2)C1 [Example 18]	4.42 nM	0.44 nM
